# Results taken from publication PMC4435638, “Phase I trial of volasertib, a Polo-like kinase inhibitor, plus platinum agents in solid tumors: safety, pharmacokinetics and activity” (Investigational New Drugs, 2015).
# Read-outs that look alike come from different tables or passages of the source.
# Tests used:
# [1] = tested on: in vitro and murine xenograft models; conditions: BI 2536 combined with cisplatin, cited from earlier work
# [2] = tested on: patients with progressive advanced or metastatic solid tumors; design: method as in PMID 22119200; conditions: cited from earlier work
# [3] = Plasma pharmacokinetics of volasertib and CD 10899 (HPLC-MS/MS); assay type: in vivo, human; conditions: for clearance / Vd / half-life: human, intravenous; for clearance / Vd / half-life / AUC0-∞,norm, gMean / Cmax,norm, gMean: plasma; for clearance / Vd / half-life / AUC0-∞,norm, gMean: n = 28; for clearance: read-out: CL (total clearance), gMean; for Vd: read-out: Vss (apparent volume of distribution at steady state), gMean; for half-life: read-out: t1/2 (terminal half-life), gMean (converted)
# Experimental: Blood was collected at specified time points during the first and second cycles of each treatment schedule for pharmacokinetic analyses to determine the plasma concentration of volasertib and/or total platinum. Plasma concentrations in cycle 1 were determined before the start of platinum infusions (–1 hour 35 minutes relative to the start of the volasertib infusion), shortly before the end of platinum infusion (–30 minutes), during volasertib infusion (1 hour), immediately before the end of volasertib infusion (2 hours), and at 3, 8, 24, 48, 168, and 336 hours after the start of volasertib infusion. The plasma concentrations in cycle 2 were determined before the start of platinum infusions (–1 hour 35 minutes), shortly before end of platinum infusion (–30 minutes), and immediately before the end of volasertib infusion (2 hours). Plasma concentrations of both volasertib and CD 10899, the predominant circulating hydroxylated metabolite of volasertib previously identified in early clinical studies of volasertib metabolism in cancer patients, were determined simultaneously by validated high performance liquid chromatography-tandem mass spectrometry (HPLC-MS/MS) assay using [D3]volasertib and [D3]CD 10899 as internal standards. The samples were subjected to solid-phase extraction in a 96-well plate format. Chromatography was achieved on an analytical reversed-phase HPLC column with gradient elution. The substances were detected and quantified by HPLC-MS/MS using electrospray ionization in the positive ion mode. Assay performance during the study was assessed by back-calculation of calibration standards, tabulation of the standard curve fit function parameters and measurement of quality control samples. […] Samples were diluted and acidified prior to analysis and were introduced into the ICP-MS system without further sample preparation. The ions were separated and detected in the mass spectrometer and the peak areas of platinum and lutetium were determined.
# Plk = tested on: Plk; design: method as in PMID 19383823; conditions: cited from earlier work
# [4] = design: method as in PMID 19383823; conditions: preclinical studies, compared with BI 2536; cited from earlier work
# [5] = tested on: unrelated kinases (>50 other kinases); design: method as in PMID 19383823; conditions: at concentrations up to 10 μM; cited from earlier work
# [6] = volasertib combined with carboplatin
# [7] = volasertib combined with cisplatin
SMILES,Efficacy compared with cisplatin alone ([1]; in vitro and murine xenograft models),Combination effect versus either therapy alone ([1]; preclinical data),"MTD of single-agent volasertib ([2]; phase I study, monotherapy)","Recommended dose for further clinical investigation ([2]; single agent, based on overall tolerability)","Patients with confirmed partial response (PR) ([2]; single agent, urothelial cancer, ovarian cancer, or melanoma)",Influence of cisplatin or carboplatin on the pharmacokinetics or metabolism of volasertib ([3]; co-administration),"clearance [3, 6]","Vd [3, 6]","half-life [3, 6]","clearance [3, 7]","Vd [3, 7]","half-life [3, 7]","AUC0-∞,norm, gMean ([3]; volasertib i.v. infusion combined with carboplatin)","Cmax,norm, gMean ([3]; volasertib i.v. infusion combined with carboplatin, n = 29)","AUC0-∞,norm, gMean ([3]; volasertib i.v. infusion combined with cisplatin)","Cmax,norm, gMean ([3]; volasertib i.v. infusion combined with cisplatin, n = 30)",Concentrations at which Plk is targeted (mitotic arrest and apoptosis) (Plk),Terminal half-life (t1/2) [4],Volume of distribution [4],Inhibition of unrelated kinases (>50 other kinases) [5]
CC[C@@H]1C(=O)N(C)c2cnc(Nc3ccc(C(=O)NC4CCN(C)CC4)cc3OC)nc2N1C1CCCC1 [BI 2536],improved efficacy,may confer synergism,,,,,,,,,,,,,,,,,,
CC[C@@H]1C(=O)N(C)c2cnc(Nc3ccc(C(=O)N[C@H]4CC[C@H](N5CCN(CC6CC6)CC5)CC4)cc3OC)nc2N1C(C)C [Volasertib],,,400 mg,300 mg,three patients,no influence,865 mL/min,7550 L,166 h,999 mL/min,6780 L,137 h,19.3 [ng · h/mL]/mg,1.40 [ng/mL]/mg,16.7 [ng · h/mL]/mg,1.29 [ng/mL]/mg,low nanomolar concentrations,long terminal half-life,high volume of distribution,does not inhibit
